We go through six molecules from patent publication US11945798B2, “Substituted aminopyridine compounds as EGFR inhibitors” (YUHAN CORPORATION, priority 2021, dated 2024).

Structures are written as SMILES.

One experiment addresses EGFR del19/T790M/C797S (Homo sapiens, UniProt P00533, C797S/DEL746-750/T790M). Kind of experiment: Biochemical EGFR kinase assay (Lance Ultra TR-FRET), del19/T790M/C797S. The note with it: IC50 del19/T790M/C797S (nM) 100 μM ATP, 100 μM ATP. Summed up:
(§1)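 Step 1: compound in kinase buffer, 0.003–10 μM. Step 2: kinase reaction 1 h at room temperature. Step 4: TR-FRET read at 615/665 nm; IC50 calculated.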
In general terms: TR-FRET usually uses a lanthanide donor and a delayed reading to cut background.

For the next experiment, the target named is EGFR L858R/T790M/C797S (Homo sapiens, UniProt P00533, C797S/L858R/T790M). Kind of experiment: Biochemical EGFR kinase assay (Lance Ultra TR-FRET), L858R/T790M/C797S. The note with it: IC50 L858R/T790M/C797S (nM) 100 μM ATP, 100 μM ATP. Summed up:
as §1

The target of a further experiment is EGFR del19/C797S (Homo sapiens, UniProt P00533, C797S/DEL746-750). Nature of the experiment: Biochemical EGFR kinase assay (Lance Ultra TR-FRET), del19/C797S. The note with it: IC50 del19/C797S (nM) 100 μM ATP, 100 μM ATP. The procedure, abridged: as §1
The target of a further experiment is EGFR L858R/C797S (Homo sapiens, UniProt P00533, C797S/L858R). Kind of experiment: Biochemical EGFR kinase assay (Lance Ultra TR-FRET), L858R/C797S. The note with it: IC50 L858R/C797S (nM) 100 μM ATP, 100 μM ATP. The protocol: Biochemical EGFR kinase assays were conducted using Lance Ultra time-resolved fluorescence resonance energy transfer (TR-FRET) technology from Perkin-Elmer. Compounds of the invention were initially diluted to 20 mM in 100% DMSO for storage and made into kinase buffer solution to create a compound concentration ranging from 0.003 μM and 10 μM.
Each kinase reactions were incubated at room temperature for 1 hour and then stopped by the addition of 4 μL of stop solution (10 mM EDTA). The specific Europium-labeled-anti-phosphopeptide antibody (PerkinElmer, AD0069) diluted in LANCE detection buffer was then added to a final concentration of 2 nM. After 60 minutes incubation at room temperature the LANCE signal was measured on an EnVision Multilabel Reader (Perkin-Elmer). Excitation wavelength was set at 320 nm and emission monitored at 615 nm (donor) and 665 nm (acceptor). The IC50 values were determined using GraphPad prism software (GraphPad Software, Inc., San Diego, CA, USA).

The target of another experiment is EGFR wildtype (WT) (Homo sapiens, UniProt P00533). Nature of the experiment: Biochemical EGFR kinase assay (Lance Ultra TR-FRET), wildtype. The note with it: IC50 WT (nM) 100 μM ATP, 100 μM ATP. The procedure, abridged: as §1
Sequence of EGFR wildtype (WT) (P00533 25-1210): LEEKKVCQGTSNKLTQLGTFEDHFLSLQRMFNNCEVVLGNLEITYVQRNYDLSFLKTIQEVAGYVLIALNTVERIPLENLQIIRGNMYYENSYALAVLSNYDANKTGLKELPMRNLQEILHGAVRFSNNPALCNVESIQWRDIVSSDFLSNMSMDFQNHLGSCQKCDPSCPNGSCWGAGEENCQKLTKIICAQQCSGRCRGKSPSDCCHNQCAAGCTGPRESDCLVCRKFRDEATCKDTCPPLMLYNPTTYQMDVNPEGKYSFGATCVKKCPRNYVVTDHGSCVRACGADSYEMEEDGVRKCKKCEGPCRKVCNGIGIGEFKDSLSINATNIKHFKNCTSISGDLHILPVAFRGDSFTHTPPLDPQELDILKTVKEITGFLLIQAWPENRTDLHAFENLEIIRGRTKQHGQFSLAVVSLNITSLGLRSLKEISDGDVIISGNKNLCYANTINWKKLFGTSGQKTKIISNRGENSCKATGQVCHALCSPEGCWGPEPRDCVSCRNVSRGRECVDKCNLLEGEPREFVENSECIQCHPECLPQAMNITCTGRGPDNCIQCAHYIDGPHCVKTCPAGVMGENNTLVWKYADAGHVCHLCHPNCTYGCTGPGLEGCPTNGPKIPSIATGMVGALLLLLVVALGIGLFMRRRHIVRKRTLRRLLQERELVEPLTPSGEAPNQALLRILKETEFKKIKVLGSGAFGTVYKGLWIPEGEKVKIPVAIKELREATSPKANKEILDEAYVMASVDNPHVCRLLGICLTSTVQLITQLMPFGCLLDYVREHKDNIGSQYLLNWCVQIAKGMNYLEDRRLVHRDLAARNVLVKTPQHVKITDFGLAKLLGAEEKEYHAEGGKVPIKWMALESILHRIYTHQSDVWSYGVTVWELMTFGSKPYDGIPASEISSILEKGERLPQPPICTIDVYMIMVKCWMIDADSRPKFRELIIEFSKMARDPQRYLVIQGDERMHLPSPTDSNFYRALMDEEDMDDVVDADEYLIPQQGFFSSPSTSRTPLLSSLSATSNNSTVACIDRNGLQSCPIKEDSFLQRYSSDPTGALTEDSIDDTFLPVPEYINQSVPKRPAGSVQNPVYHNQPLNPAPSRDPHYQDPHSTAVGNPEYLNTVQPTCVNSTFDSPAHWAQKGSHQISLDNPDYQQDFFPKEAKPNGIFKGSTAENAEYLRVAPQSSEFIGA

Sequence of EGFR del19/T790M/C797S (P00533 with tags, fused parts or gaps DEL746-750/T790M/C797S): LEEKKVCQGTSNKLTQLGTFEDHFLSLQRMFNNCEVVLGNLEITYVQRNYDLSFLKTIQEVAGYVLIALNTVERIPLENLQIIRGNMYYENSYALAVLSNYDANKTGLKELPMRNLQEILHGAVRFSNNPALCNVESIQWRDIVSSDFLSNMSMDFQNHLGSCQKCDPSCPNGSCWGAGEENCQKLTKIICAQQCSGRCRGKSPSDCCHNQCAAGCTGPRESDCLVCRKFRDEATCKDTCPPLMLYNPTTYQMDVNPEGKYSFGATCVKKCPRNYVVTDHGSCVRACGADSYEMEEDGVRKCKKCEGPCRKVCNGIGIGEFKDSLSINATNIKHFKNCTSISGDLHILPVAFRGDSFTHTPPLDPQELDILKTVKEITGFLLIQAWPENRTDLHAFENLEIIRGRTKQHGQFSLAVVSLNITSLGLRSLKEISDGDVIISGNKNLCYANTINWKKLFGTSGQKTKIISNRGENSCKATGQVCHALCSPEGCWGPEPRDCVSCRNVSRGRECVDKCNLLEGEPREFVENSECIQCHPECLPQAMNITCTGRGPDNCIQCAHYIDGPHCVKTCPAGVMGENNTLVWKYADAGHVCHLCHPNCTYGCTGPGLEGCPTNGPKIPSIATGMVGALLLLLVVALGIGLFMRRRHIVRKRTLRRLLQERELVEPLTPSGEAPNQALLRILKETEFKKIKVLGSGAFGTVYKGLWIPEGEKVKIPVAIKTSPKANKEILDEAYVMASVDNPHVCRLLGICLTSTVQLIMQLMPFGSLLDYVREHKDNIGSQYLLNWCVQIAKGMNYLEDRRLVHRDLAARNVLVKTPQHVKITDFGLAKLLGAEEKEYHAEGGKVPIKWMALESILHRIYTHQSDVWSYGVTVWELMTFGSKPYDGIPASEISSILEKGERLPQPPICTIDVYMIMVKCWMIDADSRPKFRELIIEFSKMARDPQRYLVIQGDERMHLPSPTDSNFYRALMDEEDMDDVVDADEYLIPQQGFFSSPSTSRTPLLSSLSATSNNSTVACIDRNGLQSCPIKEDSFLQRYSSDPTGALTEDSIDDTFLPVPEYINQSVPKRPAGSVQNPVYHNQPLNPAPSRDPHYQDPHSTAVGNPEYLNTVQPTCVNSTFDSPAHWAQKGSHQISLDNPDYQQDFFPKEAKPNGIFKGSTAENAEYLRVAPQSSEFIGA
Sequence of EGFR L858R/T790M/C797S (P00533 25-1210 T790M/C797S/L858R): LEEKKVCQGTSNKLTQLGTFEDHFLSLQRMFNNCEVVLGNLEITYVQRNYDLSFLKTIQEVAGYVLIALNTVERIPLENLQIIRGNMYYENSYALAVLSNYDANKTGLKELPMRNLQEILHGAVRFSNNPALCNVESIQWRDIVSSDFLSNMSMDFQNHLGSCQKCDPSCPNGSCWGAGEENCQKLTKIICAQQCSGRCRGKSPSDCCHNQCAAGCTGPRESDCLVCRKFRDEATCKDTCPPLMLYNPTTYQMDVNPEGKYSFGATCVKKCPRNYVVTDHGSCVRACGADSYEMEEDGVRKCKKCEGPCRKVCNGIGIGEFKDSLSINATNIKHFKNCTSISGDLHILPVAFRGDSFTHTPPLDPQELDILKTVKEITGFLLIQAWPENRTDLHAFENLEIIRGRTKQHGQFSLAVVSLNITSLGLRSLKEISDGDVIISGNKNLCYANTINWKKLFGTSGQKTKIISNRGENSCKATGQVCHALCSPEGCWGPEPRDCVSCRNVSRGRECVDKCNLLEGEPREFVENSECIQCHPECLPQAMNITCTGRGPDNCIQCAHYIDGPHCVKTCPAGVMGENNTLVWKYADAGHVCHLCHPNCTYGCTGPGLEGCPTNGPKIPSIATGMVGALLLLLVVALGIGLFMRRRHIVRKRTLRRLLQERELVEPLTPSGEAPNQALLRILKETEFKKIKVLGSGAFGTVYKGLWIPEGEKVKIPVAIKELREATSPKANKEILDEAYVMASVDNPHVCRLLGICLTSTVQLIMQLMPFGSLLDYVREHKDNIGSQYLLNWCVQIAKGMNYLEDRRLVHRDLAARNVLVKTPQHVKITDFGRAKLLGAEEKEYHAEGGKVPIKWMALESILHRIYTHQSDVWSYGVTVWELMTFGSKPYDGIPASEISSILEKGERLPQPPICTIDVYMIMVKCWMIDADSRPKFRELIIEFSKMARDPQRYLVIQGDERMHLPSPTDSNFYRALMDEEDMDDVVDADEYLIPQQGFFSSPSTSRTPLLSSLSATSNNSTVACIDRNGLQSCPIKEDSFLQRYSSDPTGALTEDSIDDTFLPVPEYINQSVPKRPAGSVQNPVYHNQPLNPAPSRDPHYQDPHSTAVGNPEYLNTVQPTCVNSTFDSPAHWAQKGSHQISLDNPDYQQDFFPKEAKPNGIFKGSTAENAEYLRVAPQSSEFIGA
Sequence of EGFR del19/C797S (P00533 with tags, fused parts or gaps DEL746-750/C797S): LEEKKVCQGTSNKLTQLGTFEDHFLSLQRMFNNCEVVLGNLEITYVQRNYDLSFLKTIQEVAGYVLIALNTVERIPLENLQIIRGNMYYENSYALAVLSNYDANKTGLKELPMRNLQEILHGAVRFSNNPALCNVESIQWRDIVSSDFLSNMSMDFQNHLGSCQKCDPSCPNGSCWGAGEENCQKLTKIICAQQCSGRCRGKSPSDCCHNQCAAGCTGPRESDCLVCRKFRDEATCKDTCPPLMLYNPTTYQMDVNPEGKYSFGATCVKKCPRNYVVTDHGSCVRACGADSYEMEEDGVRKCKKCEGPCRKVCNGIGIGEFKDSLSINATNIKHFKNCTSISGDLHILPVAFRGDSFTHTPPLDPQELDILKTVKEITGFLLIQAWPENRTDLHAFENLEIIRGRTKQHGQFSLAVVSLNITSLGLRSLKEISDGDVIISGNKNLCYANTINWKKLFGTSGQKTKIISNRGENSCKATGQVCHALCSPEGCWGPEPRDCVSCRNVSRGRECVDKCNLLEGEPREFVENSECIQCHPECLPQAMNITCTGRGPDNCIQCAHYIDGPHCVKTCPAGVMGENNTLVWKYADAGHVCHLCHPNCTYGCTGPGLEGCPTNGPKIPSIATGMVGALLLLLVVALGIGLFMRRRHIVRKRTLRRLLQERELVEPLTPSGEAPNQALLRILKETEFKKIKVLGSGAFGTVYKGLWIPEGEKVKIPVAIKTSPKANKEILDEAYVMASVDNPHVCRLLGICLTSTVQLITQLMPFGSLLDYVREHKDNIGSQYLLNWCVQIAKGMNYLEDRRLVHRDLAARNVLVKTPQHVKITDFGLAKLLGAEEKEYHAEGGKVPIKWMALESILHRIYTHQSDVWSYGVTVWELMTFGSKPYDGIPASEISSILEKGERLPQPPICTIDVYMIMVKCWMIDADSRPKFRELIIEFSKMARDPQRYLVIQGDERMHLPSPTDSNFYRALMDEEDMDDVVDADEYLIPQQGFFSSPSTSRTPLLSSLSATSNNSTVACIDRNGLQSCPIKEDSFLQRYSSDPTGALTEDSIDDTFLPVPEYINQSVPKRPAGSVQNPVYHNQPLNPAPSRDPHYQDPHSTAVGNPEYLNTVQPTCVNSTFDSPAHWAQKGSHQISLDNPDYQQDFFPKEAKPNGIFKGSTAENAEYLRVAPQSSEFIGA

With `O=C(c1cnc(Nc2ccnc(-c3cnn(S(=O)(=O)C4CC4)c3)n2)cc1N[C@H]1CC[C@@H](O)CC1)C1CC1` [Example 23, Cyclopropyl(6-((2-(1-(cyclopropylsulfonyl)-1H-pyrazol-4-yl)pyrimidin-4-yl)amino)-4-(((1s,4s)-4-hydroxycyclohexyl)amino)pyridin-3-yl)methanone], the IC50 against EGFR del19/T790M/C797S was 0.7 nM; at EGFR L858R/T790M/C797S, 0.5 nM; on EGFR del19/C797S, 2.4 nM; against EGFR L858R/C797S, 6.4 nM; against EGFR wildtype (WT), 3410 nM.

For the molecule `O=C(c1cnc(Nc2ccnc(-c3cnn(S(=O)(=O)C4CC4)c3)n2)cc1N[C@H]1CC[C@@H](O)C1)C1CC1` [Example 25, Cyclopropyl(6-((2-(1-(cyclopropylsulfonyl)-1H-pyrazol-4-yl)pyrimidin-4-yl)amino)-4-(((1S,3R)-3-hydroxycyclopentyl)amino)pyridin-3-yl)methanone], the half-maximal inhibitory concentration (IC50) on EGFR del19/T790M/C797S was 0.9 nM; against EGFR L858R/T790M/C797S, 1 nM; at EGFR del19/C797S, 11.8 nM; against EGFR L858R/C797S it was 29.4 nM; at EGFR wildtype (WT), greater than 10000 nM.

With `O=C(c1cnc(Nc2ccnc(-c3cnn(S(=O)(=O)C4CC4)c3)n2)cc1N[C@@H]1CC[C@@H](O)C1)C1CC1` [Example 26, Cyclopropyl(6-((2-(1-(cyclopropylsulfonyl)-1H-pyrazol-4-yl)pyrimidin-4-yl)amino)-4-(((1R,3R)-3-hydroxycyclopentyl)amino)pyridin-3-yl)methanone], the half-inhibitory concentration (IC50) against EGFR del19/T790M/C797S was 2.9 nM; against EGFR L858R/T790M/C797S, 3.3 nM; against EGFR del19/C797S, 55.3 nM; at EGFR L858R/C797S, 118 nM; on EGFR wildtype (WT), greater than 10000 nM.

On to `CC(C)(CO)CNc1cc(Nc2ccnc(-c3cnn(S(=O)(=O)C4CC4)c3)n2)ncc1C(=O)C1CC1` [Example 28, Cyclopropyl(6-((2-(1-(cyclopropylsulfonyl)-1H-pyrazol-4-yl)pyrimidin-4-yl)amino)-4-((3-hydroxy-2,2-dimethylpropyl)amino)pyridin-3-yl)methanone], for which the IC50 against EGFR del19/T790M/C797S is 2.6 nM; against EGFR L858R/T790M/C797S, 32.1 nM; on EGFR del19/C797S it was 176 nM; on EGFR L858R/C797S, 234 nM; on EGFR wildtype (WT), greater than 10000 nM.

As to `O=C(c1cnc(Nc2ccnc(-c3cnn(S(=O)(=O)C4CC4)c3)n2)cc1NCCC1(O)CC1)C1CC1` [Example 29, Cyclopropyl(6-((2-(1-(cyclopropylsulfonyl)-1H-pyrazol-4-yl)pyrimidin-4-yl)amino)-4-((2-(1-hydroxycyclopropyl)ethyl)amino)pyridin-3-yl)methanone], the IC50 against EGFR del19/T790M/C797S is 1.8 nM; against EGFR L858R/T790M/C797S, 10 nM; against EGFR del19/C797S, 3.5 nM; against EGFR L858R/C797S it was 120 nM; on EGFR wildtype (WT), greater than 10000 nM.

`CN[C@H]1CC[C@@H](Nc2cc(Nc3ccnc(-c4cnn(S(=O)(=O)C5CC5)c4)n3)ncc2C(=O)C2CC2)CC1` [Example 32, Cyclopropyl-(6-((2-(1-(cyclopropylsulfonyl)-1H-pyrazol-4-yl)pyrimidin-4-yl)amino)-4-(((1s,4s)-4-(methylamino)cyclohexyl)amino)pyridin-3-yl)methanone]: the IC50 against EGFR del19/T790M/C797S was 1.2 nM; against EGFR L858R/T790M/C797S it was 2 nM; against EGFR del19/C797S, 51.1 nM; at EGFR L858R/C797S it was 54.7 nM; against EGFR wildtype (WT), greater than 10000 nM.

A word on the IC50: it is the concentration that gives 50% inhibition. Low values mean greater potency in that assay, high ones weaker potency in that assay.
